The source of these data is patent EP4667464A1 (Cyrus Therapeutics Inc., priority 2023, dated 2024).

One experiment concerns the target T1, SOS1 (Homo sapiens, UniProt Q07889).
T1 construct: HIS-SOS1cat (160 nM; Cytoskeleton, US); His (N); purchased Cytoskeleton
T1 sequence (Q07889 564-1049 limits assumed): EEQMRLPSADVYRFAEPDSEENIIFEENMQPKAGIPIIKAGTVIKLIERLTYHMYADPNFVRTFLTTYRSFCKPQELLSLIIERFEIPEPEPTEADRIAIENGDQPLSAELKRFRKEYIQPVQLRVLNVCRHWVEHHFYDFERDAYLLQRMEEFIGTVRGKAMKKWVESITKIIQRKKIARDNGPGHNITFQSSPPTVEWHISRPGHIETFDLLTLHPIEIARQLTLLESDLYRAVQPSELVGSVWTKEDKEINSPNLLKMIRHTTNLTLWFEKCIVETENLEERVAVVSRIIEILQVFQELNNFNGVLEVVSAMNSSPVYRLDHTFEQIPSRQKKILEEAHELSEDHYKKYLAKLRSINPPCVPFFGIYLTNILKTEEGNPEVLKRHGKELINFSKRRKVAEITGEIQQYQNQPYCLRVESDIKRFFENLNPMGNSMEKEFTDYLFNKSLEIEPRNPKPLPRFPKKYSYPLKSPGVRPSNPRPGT
In words: SOS-catalyzed nucleotide exchange assay (HTRF, SOS1-mediated GTP loading of KRAS G12D). It is filed as biochemical. The method, then:
SOS1 activity was measured by SOS1-mediated GTP loading quantification of KRAS^G12D. GTP loaded KRAS^G12D was detected by HTRF (Homogeneous Time Resolved Fluorescence) using anti-GST terbium (Cisbio, France) as a donor and a fluorescence GTP analogue (EDA-GTP-DY-647P1, [DY-647P1 labeled 2'/3'-O-(2-aminoethyl-carbamoyl)guanosine-5'-triphosphate (Jena bioscience, Germany)]) as an acceptor.
KRAS^G12D working solution was prepared by adding equal amounts of GST-KRAS^G12D (100 nM) and anti-GST-terbium (2 nM; Cisbio, France) to the assay buffer and culturing on ice for 10 minutes. […] Control solution was prepared by adding equal volumes of EDA-GTP-DY-647P1 and the assay buffer for normalization control to exclude GEF-independent GTP loading and background signals.
10 uL of the KRAS^G12D solution was added to each well and incubated for 30 minutes at room temperature while shaking. HTRF was measured using a Thermo Varioskan (excitation 334 nm, emission 665 nm). The IC50 of each inhibitor was analyzed using Graphad Prism.
In general terms: TR-FRET usually uses a lanthanide donor and a delayed reading to cut background.

The target in another experiment is T2, KRAS G12C::SOS1 (Homo sapiens, UniProt Q07889).
T2 construct: purchased CISBIO 64KRASG12PEH
T2 sequence (Q07889 1-1333): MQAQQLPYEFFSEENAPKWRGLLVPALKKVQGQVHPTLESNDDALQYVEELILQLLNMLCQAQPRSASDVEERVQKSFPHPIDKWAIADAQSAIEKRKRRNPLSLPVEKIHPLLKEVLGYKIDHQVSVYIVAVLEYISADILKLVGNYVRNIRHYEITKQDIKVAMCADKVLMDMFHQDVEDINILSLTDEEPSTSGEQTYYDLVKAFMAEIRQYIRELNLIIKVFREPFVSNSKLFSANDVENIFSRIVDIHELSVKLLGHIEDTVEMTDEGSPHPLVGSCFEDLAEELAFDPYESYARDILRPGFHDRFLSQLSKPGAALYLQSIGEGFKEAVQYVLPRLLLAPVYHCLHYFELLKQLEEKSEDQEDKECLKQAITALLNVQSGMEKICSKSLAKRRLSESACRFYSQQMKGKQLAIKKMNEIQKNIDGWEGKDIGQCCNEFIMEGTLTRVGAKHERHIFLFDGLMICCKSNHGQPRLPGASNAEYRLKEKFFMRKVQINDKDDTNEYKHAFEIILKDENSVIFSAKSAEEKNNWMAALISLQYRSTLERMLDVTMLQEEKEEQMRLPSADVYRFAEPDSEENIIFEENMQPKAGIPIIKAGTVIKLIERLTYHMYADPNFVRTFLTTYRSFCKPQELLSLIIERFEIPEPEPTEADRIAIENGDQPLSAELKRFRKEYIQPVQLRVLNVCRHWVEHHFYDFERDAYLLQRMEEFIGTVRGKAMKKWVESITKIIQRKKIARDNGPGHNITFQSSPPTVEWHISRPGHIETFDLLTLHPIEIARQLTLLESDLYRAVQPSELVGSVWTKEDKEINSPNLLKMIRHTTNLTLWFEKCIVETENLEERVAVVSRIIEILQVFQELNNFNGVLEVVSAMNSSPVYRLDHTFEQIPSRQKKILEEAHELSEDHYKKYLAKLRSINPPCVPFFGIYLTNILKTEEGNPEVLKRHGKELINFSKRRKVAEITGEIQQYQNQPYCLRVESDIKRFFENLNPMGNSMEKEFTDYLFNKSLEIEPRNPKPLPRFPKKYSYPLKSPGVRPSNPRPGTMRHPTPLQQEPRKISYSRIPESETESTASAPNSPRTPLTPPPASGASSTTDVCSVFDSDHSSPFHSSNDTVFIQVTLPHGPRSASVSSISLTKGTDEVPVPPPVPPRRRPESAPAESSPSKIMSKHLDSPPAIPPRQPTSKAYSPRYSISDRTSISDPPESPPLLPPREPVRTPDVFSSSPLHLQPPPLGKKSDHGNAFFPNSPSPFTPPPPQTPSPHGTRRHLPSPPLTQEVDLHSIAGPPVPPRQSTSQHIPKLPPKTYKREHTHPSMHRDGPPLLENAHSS
Kind of experiment: KRAS G12C::SOS1 protein-protein interaction (PPI) inhibition assay (HTRF). The experiment is classed as binding. On the procedure:
Protein-protein interaction between SOS1 and KRAS^G12c was detected using KRAS G12C/SOS1 binding kit from CISBIO (64KRASG12PEH, CISBIO, FRANCE) according to the manufacturer's assay method. Briefly, the maximum concentration of an inhibitor sample was set to be 3 µM, and the inhibitor sample was diluted 7 times by 1/3, and samples having a total of 8 concentrations were prepared. In HTRF (Homogeneous Time-Resolved Fluorescence) exclusive 96-well low-volume white plate (66PL96005, CISBIO, FRANCE), 2 µL of an inhibitor sample prepared for each concentration, 5 µL of a mixed solution of Tag1 labeled KRAS^G12c protein and GTP diluted with the dilution solution provided by the manufacturer, and 5 µL of Tag2 labeled SOS1 protein were mixed, and added with 8 µL of a diluted solution where anti-Tag1 KRAS^G12C XL665 (HTRF acceptor) labeled antibody and anti-Tag2 SOS1 Terbium cryptate (HTRF donor) labeled antibody were mixed in an equal ratio and cultured at room temperature for 2 h.

The mark [1] stands for this setting: GST-KRAS G12D, HIS-SOS1cat, compound 128 pM to 10 µM; read-out: SOS-catalyzed nucleotide exchange assay.
The mark [2] stands for this setting: 8 concentrations from 3 µM, three replicates; read-out: KRAS G12C::SOS1 PPI.

Each structure is given as a SMILES string. Read-outs that look alike come from different tables or passages of the source.

As for `CCn1nncc1-c1cc(-n2nc(C(=O)N[C@H](C)c3cccc(C(F)(F)F)c3F)ccc2=O)cnc1C` [Example 1-27, 1-[5-(3-ethyltriazol-4-yl)-6-methyl-3-pyridyl]-N-[(1R)-1-[2-fluoro-3-(trifluoromethyl)phenyl]ethyl]-6-oxo-pyridazine-3-carboxamide], the IC50 on SOS1 (setting [1]) and on KRAS G12C::SOS1 (setting [2]) was 50 to 150 nM throughout.
As for `C[C@@H](NC(=O)c1cc(F)c(=O)n(-c2cncc(-c3cnnn3C)c2)c1)c1cccc(C(F)(F)F)c1F` [Example 1-30, (R)-3-fluoro-N-(1-(2-fluoro-3-(trifluoromethyl)phenyl)ethyl)-5'-(1-methyl-1H-1,2,3-triazol-5-yl)-2-oxo-2H-[1,3'-bipyridine]-5-carboxamide], the IC50 at SOS1 (setting [1]) and at KRAS G12C::SOS1 (setting [2]) was over 150 nM throughout.
As for `[2H][C@](C)(NC(=O)c1ccc(=O)n(-c2cncc(-c3cnnn3C)c2)n1)c1cccc(C(F)(F)F)c1F` [Example 1-34, N-[(1R)-1-deuterio-1-[2-fluoro-3-(trifluoromethyl)phenyl]ethyl]-1-[5-(3-methyltriazol-4-yl)-3-pyridyl]-6-oxo-pyridazine-3-carboxamide], the results for the IC50 on SOS1 (setting [1]) and on KRAS G12C::SOS1 (setting [2]) were 50 to 150 nM and under 50 nM, respectively.
For `[2H]C([2H])([2H])[C@@H](NC(=O)c1ccc(=O)n(-c2cncc(-c3cnnn3C)c2)n1)c1cccc(C(F)(F)F)c1F` [Example 1-35, N-{(R)-1-[2-fluoro-3-(trifluoromethyl)phenyl]-ethyl-(2,2,2-trideuterio)}-1-[5-(1-methyl-1H-1,2,3-triazol-5-yl)-3-pyridyl]-6-oxo-pyridazine-3-carboxamide], in that order: 50 to 150 nM and 50 to 150 nM.
For `[2H]C([2H])([2H])[C@@H](NC(=O)c1ccc(=O)n(-c2cncc(-c3cnnn3C([2H])([2H])[2H])c2)n1)c1cccc(C(F)(F)F)c1F` [Example 1-36, N-{(R)-1-[2-fluoro-3-(trifluoromethyl)phenyl]-ethyl-(2,2,2-trideuterio)}-1-(5-{1-[trideuteriomethyl]-1H-1,2,3-triazol-5-yl}-3-pyridyl)-6-oxo-1,6-dihydropyridazine-3-carboxamide], in that order: under 50 nM and 50 to 150 nM.
Take `[2H]c1cc(C(=O)N[C@H](C)c2cccc(C(F)(F)F)c2F)nn(-c2cncc(-c3cnnn3C)c2)c1=O` [Example 1-38, N-{(R)-1-[2-fluoro-3-(trifluoromethyl)phenyl]ethyl}-1-[5-(1-methyl-1H-1,2,3-triazol-5-yl)-3-pyridyl]-6-oxo-1,6-dihydropyridazine-5-deuterio-3-carboxamide]: the IC50 on SOS1 (setting [1]) is 50 to 150 nM; at KRAS G12C::SOS1 (setting [2]) it was under 50 nM.
As for `CCc1cc(C(=O)N[C@H](C)c2cccc(C(F)(F)CO)c2F)nn(-c2cncc(-c3cnnn3C(C)C)c2)c1=O` [Example 1-41, N-{(R)-1-[3-(1,1-difluoro-2-hydroxyethyl)-2-fluorophenyl]ethyl}-5-ethyl-1-[5-(1-isopropyl-1H-1,2,3-triazol-5-yl)-3-pyridyl]-6-oxo-1,6-dihydropyridazine-3-carboxamide], the IC50 on SOS1 (setting [1]) and on KRAS G12C::SOS1 (setting [2]) was under 50 nM throughout.
Take `[2H]c1cc(C(=O)N[C@H](C)c2cccc(C(F)(F)CO)c2F)nn(-c2cncc(-c3cnnn3C3CC3)c2)c1=O` [Example 1-43]: the IC50 on SOS1 (setting [1]) and on KRAS G12C::SOS1 (setting [2]) was under 50 nM in each case.
Take `C[C@@H](NC(=O)c1ccc(=O)n(-c2cncc(-c3cnnn3C)n2)c1)c1cccc(C(F)(F)F)c1F` [Example 1-48, N-{(R)-1-[2-fluoro-3-(trifluoromethyl)phenyl]ethyl}-1-[6-(1-methyl-1H-1,2,3-triazol-5-yl)pyrazin-2-yl]-6-oxo-1,6-dihydropyridine-3-carboxamide]: the IC50 at SOS1 (setting [1]) and on KRAS G12C::SOS1 (setting [2]) was over 150 nM in each case.
Consider `CC(C)n1nncc1-c1cncc(-n2nc(C(=O)N[C@H](C)c3cccc(C(F)(F)F)c3F)ccc2=O)c1` [Example 1-49, N-[(1R)-1-[2-fluoro-3-(trifluoromethyl)phenyl]ethyl]-1-[5-(3-isopropyltriazol-4-yl)-3-pyridyl]-6-oxo-pyridazine-3-carboxamide], for which the IC50 was 50 to 150 nM at SOS1 (read-out: SOS-catalyzed nucleotide exchange assay; GST-KRAS G12D, HIS-SOS1cat, compound 128 pM to 10 µM) and under 50 nM on KRAS G12C::SOS1 (read-out: KRAS G12C::SOS1 PPI; 8 concentrations from 3 µM, three replicates).
In the case of `C[C@@H](NC(=O)c1ccc(=O)n(-c2cncc(-c3cnnn3C3CC3)c2)n1)c1cccc(C(F)F)c1F` [Example 1-51, N-[(1R)-1-[3-(difluoromethyl)-2-fluorophenyl]ethyl]-1-[5-(1-cyclopropyl-1H-1,2,3-triazol-5-yl)-3-pyridyl]-6-oxo-pyridazine-3-carboxamide], the IC50 on SOS1 (setting [1]) was under 50 nM; at KRAS G12C::SOS1 (setting [2]) it was 50 to 150 nM.
On to `C[C@@H](NC(=O)c1ccc(=O)n(-c2cncc(-c3cnnn3C3CCC3)c2)n1)c1cccc(C(F)(F)CO)c1F` [Example 1-55, 1-[5-(1-cyclobutyl-1H-1,2,3-triazol-5-yl)-3-pyridyl]-N-[(1R)-1-[3-(1,1-difluoro-2-hydroxy-ethyl)-2-fluoro-phenyl]ethyl]-6-oxo-pyridazine-3-carboxamide], for which the IC50 at SOS1 (setting [1]) and at KRAS G12C::SOS1 (setting [2]) was under 50 nM throughout.
Consider `C[C@@H](NC(=O)c1ccc(=O)n(-c2cncc(-c3cnnn3C3CC3)c2)n1)c1cc(N)cc(C(F)(F)F)c1` [Example 1-56, 1-[5-(1-cyclopropyl-1H-1,2,3-triazol-5-yl)-3-pyridyl]-6-oxo-N-[(1R)-1-[3-amino-5-(trifluoromethyl)phenyl]ethyl]pyridazine-3-carboxamide], for which the IC50 on SOS1 (setting [1]) and at KRAS G12C::SOS1 (setting [2]) was under 50 nM in each case.
